# From patent US8669257B2, “Phenazine derivatives and uses thereof as potassium channel modulators” (The Johns Hopkins University, priority 2007, dated 2014)
# Tested on: calcium influx in Jurkat T-cells
# Assay: Calcium imaging assay: store-depletion induced calcium influx in Jurkat T-cells
# Assay type: cell-based, human
# Conditions: thapsigargin then 2 mM Ca2+; clofazimine preincubated 5 min
# Protocol: JurkaT-cells were attached to L-lysine-coated glass dishes (MatTek). Cells were loaded with fura-2-AM (Invitrogen_F-1201) for 45 min before they were washed sequentially with growth medium and Ca^2+-free HBSS. Fluorescence excitation wavelengths were set at 350 and 380 nm, respectively, on a Zeiss Axiovert 200M microscope while emission wavelength was set at 510 nm. Changes in intracellular calcium concentrations were determined by fluorescence intensity ratio ([…]/F380).
row,Compound,effect on calcium entry
1,Clc1ccc(COC(Cn2ccnc2)c2ccc(Cl)cc2Cl)cc1 (centres unmarked) [econazole],abrogated calcium entry
2,[Gd] [gadolinium],abrogated calcium entry
